Where “and” joins values, the source holds several entries; their conditions need not be identical. Equal entries are not always repeated.
Legend:
mMOR [1] = target: T1, mMOR (Mus musculus, UniProt P42866); assay: [125I]BNtxA radioligand competition binding, mouse MOR; conditions: mean ± SEM, n = 3; [125I]BNtxA; read-out: Ki ± SEM mMOR
T1 construct: signal peptide (heterologous, not specified) (N); expressed in transfected cells; pcDNA3.1(+) construct made in house

mKOR = target: T2, mKOR (Mus musculus, UniProt P33534); assay: [125I]BNtxA radioligand competition binding, mouse KOR; conditions: mean ± SEM, n = 3; [125I]BNtxA; read-out: Ki ± SEM mKOR
T2 construct: expressed in transfected cells; membranes

mDOR [2] = target: T3, mDOR (Mus musculus, UniProt P32300); assay: [125I]BNtxA radioligand competition binding, mouse DOR; conditions: mean ± SEM, n = 3; [125I]BNtxA; read-out: Ki ± SEM mDOR
T3 construct: expressed in transfected cells

mMOR [3] = target: T1, mMOR; assay: CAMYEL BRET cAMP agonist assay at mMOR; type: cell-based; conditions: mMOR; for cAMP %: single replicates, source data Fig 6b, listed as C11-Br-7OH (24)
hMOR [4] = target: T4, hMOR (Homo sapiens, UniProt P35372); assay: CAMYEL BRET cAMP agonist assay at hMOR; type: cell-based; conditions: for cAMP %: hMOR, single replicates, source data Fig 6c, listed as C11-Br-7OH (24)
T4 construct: expressed in transfected cells; plasmid a gift from Dr. Nevin Lambert

mMOR [5] = target: T1, mMOR; assay: CAMYEL BRET antagonism assay at mMOR (inhibition of DAMGO); type: cell-based; conditions: for Antagonist activity at mMOR, raw signal (single replicate values): source data of Fig 8a and Table 5, listed as C11-Br-7OH (24);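 on Antagonist activity at mMOR, raw signal (single replicate values): BRET signal rises as cAMP falls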
hMOR [6] = target: T4, hMOR; assay: cell-based
mDOR [7] = target: T3, mDOR; assay: CAMYEL BRET cAMP agonist assay at mDOR; type: cell-based; conditions: Log[drug] (M) -5; single replicate values, Supplementary Figure 7B
[8] = Log[drug] (M) -13, cAMP inhibition as % of DAMGO

**Q.** Which Ki (mMOR [1]) does the source give for CC[C@@H]1CN2CC[C@@]3(O)C(=Nc4cc(Br)cc(OC)c43)[C@@H]2C[C@@H]1/C(=C\OC)C(=O)OC [11-Br-7OH (24), 11-Br-7OH] here?
**A.** Its Ki is 32.4 ± 1.4 nM.

**Q.** And the Ki (mKOR)?
**A.** The Ki was 81.1 ± 7.1 nM.

**Q.** And the Ki (mDOR [2])?
**A.** The Ki was 57.7 ± 6.7 nM.

**Q.** What about the cAMP % (mMOR [3]; Log[drug] (M) -5) of the same compound?
**A.** The cAMP % was 9.013% and 6.73% and 3.065% and 5.631% and 1.057% and 0.04315% and 7.004% and 14.1806% and 4.634%.

**Q.** And the cAMP % (mMOR [3]; Log[drug] (M) -6)?
**A.** The cAMP % was 5.8044% and 1.851% and 7.958% and 11.2571% and 3.589% and -1.762% and 6.0175% and 2.324% and 0.676%.

**Q.** What about the cAMP % (mMOR [3]; Log[drug] (M) -7) of the same compound?
**A.** Its cAMP % is -3.894% and -5.88% and 9.775% and 0.4502% and 1.258% and -1.708% and 1.616% and 1.4183% and 0.1827%.

**Q.** What about the cAMP % (mMOR [3]; Log[drug] (M) -8) of the same compound?
**A.** The cAMP % was 1.549% and 0.05958% and 0.01199% and -1.248% and 2.618% and 1.046% and 3.634% and 0.478% and 3.5882%.

**Q.** And the cAMP % (mMOR [3]; Log[drug] (M) -9)?
**A.** The cAMP % was 13.8914% and 20.7075% and 0.6937% and 7.1213% and -0.7937% and 5.232% and 4.985% and -2.644% and 5.425%.

**Q.** What about the cAMP % (mMOR [3]; Log[drug] (M) -10) of the same compound?
**A.** Its cAMP % is 10.1801% and 15.9014% and 8.011% and 8.742% and 7.948% and 6.092% and 2.318% and -3.2024% and 3.127%.

**Q.** And the cAMP % (mMOR [3]; Log[drug] (M) -11)?
**A.** The cAMP % was 14.2135% and 8.364% and 1.552% and 8.664% and 7.808% and 10.8013% and 0.4413% and -1.089% and 0.6474%.

**Q.** And the cAMP % (mMOR [3]; [8])?
**A.** Its cAMP % is 6.348% and 21.1377% and 5.87% and 7.068% and 6.954% and 15.1455% and 5.75% and 5.389% and 3.7452%.

**Q.** What about the Emax (mMOR [3]; maximal inhibitory effect on cAMP levels relative to DAMGO) of the same compound?
**A.** The Emax was less than 10%.

**Q.** And the EC50 (hMOR [4])?
**A.** The EC50 was 401 nM.

**Q.** And the Emax (hMOR [4])?
**A.** Its Emax is 14%.

**Q.** And the cAMP % (hMOR [4]; Log[drug] (M) -5)?
**A.** The cAMP % was 14.6374% and 26.5598% and 13.4593% and 12.3793% and 6.1202% and 3.5813% and 27.8092% and 3.652% and 6.737%.

**Q.** What about the cAMP % (hMOR [4]; Log[drug] (M) -6) of the same compound?
**A.** Its cAMP % is 18.6989% and 7.716% and 19.1803% and 0.2165% and 6.6608% and -0.2253% and 39.9126% and 18.2077% and 19.9668%.

**Q.** What about the cAMP % (hMOR [4]; Log[drug] (M) -7) of the same compound?
**A.** Its cAMP % is 12.0186% and 17.6725% and 14.4534% and 3.531% and 0.1326% and -1.3668% and -1.063% and 7.0578% and -1.6001%.

**Q.** What about the cAMP % (hMOR [4]; Log[drug] (M) -8) of the same compound?
**A.** The cAMP % was 3.165% and 4.1647% and 7.3741% and 8.619% and 14.9301% and 11.6764% and -5.609% and -5.366% and 10.9759%.

**Q.** What about the cAMP % (hMOR [4]; Log[drug] (M) -9) of the same compound?
**A.** Its cAMP % is 2.317% and -1.298% and -1.019% and -2.259% and -7.165% and 10.2432% and 25.8292% and 21.9013% and 22.3959%.

**Q.** And the cAMP % (hMOR [4]; Log[drug] (M) -10)?
**A.** The cAMP % was 4.34% and -1.394% and 4.504% and 1.432% and 0.8602% and -2.292% and 0.6443% and 11.4211% and 26.9944%.

**Q.** And the cAMP % (hMOR [4]; Log[drug] (M) -11)?
**A.** The cAMP % was 6.752% and 9.529% and 9.016% and 11.4512% and -5.469% and 12.8282% and 13.3991% and 6.363% and 12.7423%.

**Q.** What about the cAMP % (hMOR [4]; [8]) of the same compound?
**A.** Its cAMP % is 4.239% and 4.052% and 15.2175% and 4.859% and 6.721% and 16.8511% and 4.407% and 8.458% and 8.078%.

**Q.** And the IC50 (mMOR [5])?
**A.** Its IC50 is 550 nM.

**Q.** What about the “Antagonist activity at mMOR, raw signal (single replicate values)” value (shortened to “Antagonist activity at mMOR, raw signal”) (mMOR [5]; Log[drug] (M) -5) of the same compound?
**A.** The value was 0.01588 and 0.02679 and 0.02408 and 0.03029 and 0.008675 and 0.02853 and 0.02577 and 0.02856 and 0.04207.

**Q.** And the “Antagonist activity at mMOR, raw signal” value (mMOR [5]; Log[drug] (M) -6)?
**A.** The value was 0.07568 and 0.07832 and 0.06492 and 0.08421 and 0.0634 and 0.06872 and 0.08325 and 0.0829 and 0.07977.

**Q.** And the “Antagonist activity at mMOR, raw signal” value (mMOR [5]; Log[drug] (M) -7)?
**A.** Its value is 0.1777 and 0.1753 and 0.1839 and 0.1921 and 0.1726 and 0.1908 and 0.1553 and 0.1528 and 0.1604.

**Q.** What about the “Antagonist activity at mMOR, raw signal” value (mMOR [5]; Log[drug] (M) -8) of the same compound?
**A.** The value was 0.2079 and 0.2137 and 0.206 and 0.2077 and 0.2162 and 0.1891 and 0.1751 and 0.1625 and 0.1706.

**Q.** And the “Antagonist activity at mMOR, raw signal” value (mMOR [5]; Log[drug] (M) -9)?
**A.** Its value is 0.1949 and 0.206 and 0.225 and 0.1941 and 0.2008 and 0.2159 and 0.1687 and 0.1594 and 0.1786.

**Q.** And the “Antagonist activity at mMOR, raw signal” value (mMOR [5]; Log[drug] (M) -10)?
**A.** The value was 0.1894 and 0.2034 and 0.2214 and 0.2024 and 0.209 and 0.1982 and 0.1754 and 0.1654 and 0.1797.

**Q.** What about the “Antagonist activity at mMOR, raw signal” value (mMOR [5]; Log[drug] (M) -11) of the same compound?
**A.** Its value is 0.2409 and 0.2089 (2×) and 0.2025 and 0.1938 and 0.2023 and 0.1798 and 0.1667 and 0.1739.

**Q.** What about the IC50 (hMOR [6]) of the same compound?
**A.** The IC50 was 1970 nM.

**Q.** What about the “Agonist activity of 7OH analogs at mDOR” value (mDOR [7]) of the same compound?
**A.** Its value is 13.8013 and 18.9976 and 33.2307 and 22.3286 and 13.395 and 16.9068 and 13.8361 and 11.2191 and 18.2655.
